Experimental data from PubChem BioAssay AID493062 (The Scripps Research Institute Molecular Screening Center, 2011).

Columns and labels:
2B4/MCL-1 = assay: MCL-1-selective apoptosis induction in 2B4 cells – cell-based, fluorescence, assay provider data, selectivity assay for MCL1-BIM inhibitor project, late-stage follow-up (AID 493062); conditions: 2B4/MCL-1 caspase activation fluorescence
2B4/BCL-2 = assay: as above; conditions: 2B4/MCL-1 caspase activation fluorescence

| Structure (SMILES) | EC50 (2B4/MCL-1) | EC50 (2B4/BCL-2) |
| --- | --- | --- |
| CC(C)CCNC(=O)c1cc(-c2ccco2)nc2ccccc12 | > 25 µM | > 25 µM |
| O=C(NC1CCC(O)CC1)c1cc(-c2ccco2)nc2ccccc12 (configuration not stated) | > 25 µM | > 25 µM |
| CN(CCOc1ccccc1)C(=O)c1cc(-c2ccco2)nc2ccccc12 | > 25 µM | > 25 µM |
| Cc1ccc(-c2cc(C(=O)Nc3nccs3)c3ccccc3n2)o1 | > 25 µM | > 25 µM |
| CCCn1c(N)c(N(CCOC)C(=O)c2cc(-c3ccco3)nc3ccccc23)c(=O)[nH]c1=O | > 25 µM | > 25 µM |
| COc1cccc(NC(=O)c2cc(-c3ccc(C)o3)nc3ccccc23)c1 | > 25 µM | > 25 µM |
| CCCCn1c(N)c(N(CCC(C)C)C(=O)c2cc(-c3ccco3)nc3ccccc23)c(=O)[nH]c1=O | > 25 µM | > 25 µM |
| Cc1ccc(-c2cc(C(=O)Nc3ccccn3)c3ccccc3n2)o1 | > 25 µM | > 25 µM |
| NS(=O)(=O)c1ccc(CCNC(=O)c2cc(-c3ccco3)nc3ccccc23)cc1 | > 25 µM | > 25 µM |
| COc1ccc(NC(=O)c2cc(-c3ccco3)nc3ccccc23)cn1 | > 25 µM | > 25 µM |
| CN(C)C(=O)c1ccc(NC(=O)c2cc(-c3ccco3)nc3ccccc23)cc1 | > 25 µM | > 25 µM |
| CCc1nnc(NC(=O)c2cc(-c3ccco3)nc3ccccc23)s1 | > 25 µM | > 25 µM |
| COc1ccc(Cc2nnc(NC(=O)CCc3ccco3)s2)cc1OC | 0.8 µM | 1.5 µM |
| COC(=O)C1CCN(C(=O)c2cc(-c3ccco3)nc3ccccc23)CC1 | > 25 µM | > 25 µM |
| COc1ccc(Cc2nnc(NC(=O)Cc3cccc(Br)c3)s2)cc1OC | > 25 µM | > 25 µM |
| COc1cccc(CC(=O)Nc2nnc(Cc3ccc(OC)c(OC)c3)s2)c1 | > 25 µM | > 25 µM |
| Cc1ccc(-c2cc(C(=O)N3CCCC(C(F)(F)F)C3)c3ccccc3n2)o1 (configuration not stated) | > 25 µM | > 25 µM |
| COc1ccc(CC(=O)Nc2nnc(Cc3ccc(OC)c(OC)c3)s2)cc1 | > 25 µM | > 25 µM |
| CC(=O)c1cccc(NC(=O)c2cc(-c3ccco3)nc3ccccc23)c1 | > 25 µM | > 25 µM |
| COc1ccc(Cc2nnc(NC(=O)Cc3ccccc3C)s2)cc1OC | > 25 µM | > 25 µM |
| COc1ccc(Cc2nnc(NC(=O)C(F)c3ccccc3)s2)cc1OC (configuration not stated) | > 25 µM | > 25 µM |
| CCCCn1c(N)c(N(CC(C)C)C(=O)c2cc(-c3ccco3)nc3ccccc23)c(=O)[nH]c1=O | > 25 µM | > 25 µM |

| Structure (SMILES) | EC50 (2B4/MCL-1) | EC50 (2B4/BCL-2) |
| --- | --- | --- |
| Cc1cccc(NC(=O)c2cc(-c3ccco3)nc3ccc(Br)cc23)n1 | 25 µM | 0.6 µM |
| CCN(CC)C(=O)COc1ccc2c(-c3ccc(OC)cc3)cc(=O)oc2c1 | > 25 µM | > 25 µM |
| Cc1ccnc(NC(=O)c2cc(-c3ccc(C)o3)nc3ccccc23)c1 | 40 µM | 40 µM |
| O=C(Nc1nncs1)c1cc(-c2ccco2)nc2ccccc12 | > 25 µM | > 25 µM |
| COc1ccc(Cc2nnc(NC(=O)Cc3cccs3)s2)cc1 | > 25 µM | > 25 µM |
| O=C(Nc1cccc(S(=O)(=O)NC2=NCCC2)c1)c1cc(-c2ccco2)nc2ccccc12 | > 25 µM | > 25 µM |
| O=C(NC(=S)Nc1cccc(S(=O)(=O)NC2=NCCC2)c1)c1cc(-c2ccco2)nc2ccccc12 | > 25 µM | > 25 µM |
| CCc1nnc(NC(=O)c2cc(-c3ccc(C)o3)nc3ccccc23)s1 | > 25 µM | > 25 µM |
| COc1ccc(Cc2nnc(NC(=O)c3cc(-c4ccco4)nc4ccc(Br)cc34)s2)cc1OC | 11 µM | 7.5 µM |
| COc1ccc(Cc2nnc(NC(=O)c3cc(-c4ccco4)nc4ccccc34)s2)cc1OC | > 25 µM | > 25 µM |
| O=C(CCn1nnc2ccccc21)Nc1nnc(Cc2ccc(F)cc2)s1 | > 25 µM | > 25 µM |
| CCN1CCN(C(=O)c2cc(-c3ccco3)nc3ccccc23)CC1 | > 25 µM | > 25 µM |
| COc1ccc(-c2cc(=O)oc3cc(OCC(=O)N4CC4)ccc23)cc1 | > 25 µM | > 25 µM |
| O=C(Nc1ccccc1F)c1cc(-c2ccco2)nc2ccccc12 | > 25 µM | > 25 µM |
| O=C(Cc1cccs1)Nc1nnc(Cc2ccccc2)s1 | > 25 µM | > 25 µM |
| COc1ccc(Cc2nnc(NC(=O)Cc3ccncc3)s2)cc1OC | > 25 µM | > 25 µM |
| COc1ccc(Cc2nnc(NC(=O)CCc3cccs3)s2)cc1OC | > 25 µM | > 25 µM |
| COc1ccccc1CC(=O)Nc1nnc(Cc2ccc(OC)c(OC)c2)s1 | > 25 µM | > 25 µM |
| CCOC(=O)C1CCCN(C(=O)c2cc(-c3ccco3)nc3ccccc23)C1 (configuration not stated) | > 25 µM | > 25 µM |
| CC(=O)N1CCN(C(=O)c2cc(-c3ccc(C)o3)nc3ccccc23)CC1 | > 25 µM | > 25 µM |
| COc1ccc(Cc2nnc(NC(=O)Cc3ccc4c(c3)OCO4)s2)cc1OC | > 25 µM | > 25 µM |
| CC1CCCN(C(=O)c2cc(-c3ccco3)nc3ccccc23)C1 (configuration not stated) | > 25 µM | > 25 µM |

| Structure (SMILES) | EC50 (2B4/MCL-1) | EC50 (2B4/BCL-2) |
| --- | --- | --- |
| Cc1ccc(-c2cc(C(=O)N3CCN(c4ccccc4O)CC3)c3ccccc3n2)o1 | > 25 µM | > 25 µM |
| COCCN(C(=O)c1cc(-c2ccco2)nc2ccccc12)c1c(N)n(Cc2ccccc2)c(=O)[nH]c1=O | > 25 µM | > 25 µM |
| O=C(c1cc(-c2ccco2)nc2ccccc12)N1CCCC(C(F)(F)F)C1 (configuration not stated) | > 25 µM | > 25 µM |
| CCN(CC)C(=O)COc1ccc2c(-c3ccc(OC)cc3)cc(=O)oc2c1C | > 25 µM | > 25 µM |
| COc1ccc(Cc2nnc(NC(=O)Cc3ccc(-c4ccccc4)cc3)s2)cc1OC | > 25 µM | > 25 µM |
| COc1ccc(Cc2nnc(NC(=O)C(=O)c3ccco3)s2)cc1OC | > 25 µM | > 25 µM |
| CCCCN(C(=O)c1cc(-c2ccco2)nc2ccccc12)c1c(N)n(CCCC)c(=O)[nH]c1=O | > 25 µM | > 25 µM |
| COc1ccc(NC(=O)c2cc(-c3ccco3)nc3ccccc23)cc1S(=O)(=O)N1CCOCC1 | > 25 µM | > 25 µM |
| Cc1ccc(NC(=O)c2cc(-c3ccc(C)o3)nc3ccccc23)cc1 | > 25 µM | > 25 µM |
| Cc1ccc(-c2cc(C(=O)Nc3cccnc3)c3ccccc3n2)o1 | > 25 µM | > 25 µM |
| O=C(Nc1cccnc1)c1cc(-c2ccco2)nc2ccc(Br)cc12 | 10 µM | > 25 µM |
| CN(CC(=O)Nc1cccc(F)c1)C(=O)c1cc(-c2ccco2)nc2ccccc12 | > 25 µM | > 25 µM |
| CCOC(=O)c1cc(-c2ccco2)nc2c1c(C)nn2-c1cccc(Cl)c1 | > 25 µM | > 25 µM |
| Cc1ccc(-c2cc(C(=O)N3CC(C)OC(C)C3)c3ccccc3n2)o1 (configuration not stated) | > 25 µM | > 25 µM |
| CN(CC(=O)Nc1ccc(F)cc1)C(=O)c1cc(-c2ccco2)nc2ccccc12 | > 25 µM | > 25 µM |
| O=C(CCn1nnc2ccccc21)Nc1nnc(Cc2ccccc2)s1 | > 25 µM | > 25 µM |
| CCCCCCNC(=O)c1cc(-c2ccco2)nc2ccccc12 | > 25 µM | > 25 µM |
| Cc1ccc(-c2cc(C(=O)N3CCN(c4ncccn4)CC3)c3cc(Br)ccc3n2)o1 | > 25 µM | > 25 µM |
| COc1ccc(Cc2nnc(NC(=O)Cc3csc4ccccc34)s2)cc1OC | > 25 µM | > 25 µM |
| CCN(CC)C(=O)COc1ccc2c(-c3ccccc3)cc(=O)oc2c1 | > 25 µM | > 25 µM |
| CCCN(C(=O)c1cc(-c2ccco2)nc2ccccc12)c1c(N)n(Cc2ccccc2)c(=O)[nH]c1=O | > 25 µM | > 25 µM |
| COc1cccc(NC(=O)c2cc(-c3ccco3)nc3ccccc23)c1 | > 25 µM | > 25 µM |

| Structure (SMILES) | EC50 (2B4/MCL-1) | EC50 (2B4/BCL-2) |
| --- | --- | --- |
| CCC(=O)Nc1nnc(Cc2ccccc2)s1 | > 25 µM | > 25 µM |
| COc1ccc(NC(=O)c2cc(-c3ccc(C)o3)nc3ccccc23)cc1OC | > 25 µM | > 25 µM |
| Cc1ccnc(NC(=O)c2cc(-c3ccco3)nc3ccc(Br)cc23)c1 | 12 µM | > 25 µM |
| COc1ccc(Cc2nnc(NC(=O)Cc3cccnc3)s2)cc1OC | > 25 µM | > 25 µM |
| COc1ccc(Cc2nnc(NC(=O)Cc3ccc(C)cc3)s2)cc1OC | > 25 µM | > 25 µM |
| CCOC(=O)c1cc(-c2ccco2)nc2c1c(C)nn2-c1ccccc1 | > 25 µM | > 25 µM |
| Cc1ccc(-c2cc(C(=O)Nc3ccccc3C(N)=O)c3ccccc3n2)o1 | > 25 µM | > 25 µM |
| Cc1ccc(NC(=O)c2cc(-c3ccc(C)o3)nc3ccccc23)nc1 | > 25 µM | > 25 µM |
| O=C(NCC1CCCO1)c1cc(-c2ccco2)nc2ccccc12 (configuration not stated) | > 25 µM | > 25 µM |
| COc1cccc(NC(=O)CN(C)C(=O)c2cc(-c3ccco3)nc3ccccc23)c1 | > 25 µM | > 25 µM |
| Cc1cccc(NC(=O)c2cc(-c3ccco3)nc3ccccc23)n1 | > 25 µM | > 25 µM |
| COc1ccc(NC(=O)c2cc(-c3ccc(C)o3)nc3ccccc23)cc1 | > 25 µM | > 25 µM |
| Cc1ccc(-c2cc(C(=O)Nc3cccc(S(=O)(=O)N(C)C)c3)c3ccccc3n2)o1 | > 25 µM | > 25 µM |
| CCN(CC)CCNC(=O)c1cc(-c2ccco2)nc2ccccc12 | > 25 µM | > 25 µM |
| Cc1ccc(-c2cc(C(=O)NCCCn3ccnc3)c3cc(Br)ccc3n2)o1 | > 25 µM | > 25 µM |
| COc1ccc(Cc2nnc(NC(=O)Cc3cccs3)s2)cc1OC | > 25 µM | > 25 µM |
| COc1ccc(Cc2nnc(NC(=O)c3cc(-c4ccc(C)o4)nc4ccccc34)s2)cc1OC | 12 µM | 30 µM |
| COCCCN(C(=O)c1cc(-c2ccco2)nc2ccccc12)c1c(N)n(Cc2ccccc2)c(=O)[nH]c1=O | > 25 µM | > 25 µM |
| Cc1ccc(-c2cc(C(=O)N3CCN(c4ccc(F)cc4)CC3)c3ccccc3n2)o1 | > 25 µM | > 25 µM |
| COc1ccc(Cc2nnc(NC(=O)Cc3cc(F)cc(F)c3)s2)cc1OC | > 25 µM | > 25 µM |
